Measured values as given in publication PMC7601404, “Enzymes Involved in the Biosynthesis of Arginine from Ornithine in Maritime Pine (Pinus pinaster Ait.)” (Plants, 2020).
Read-outs that look alike come from different tables or passages of the source. Blank lines part the entries; values can stand above or below the molecule they belong to.

Experiments:
PpOTC [1] = test system: T1, PpOTC; assay: phosphomolybdate Pi release assay, […] nm; allosteric sigmoidal fit; type: biochemical, Pinus pinaster; settings: 50 mM Tris-HCl pH 8.0, 25 °C, read-out: S0.5
T1 construct: gene OTC; mature form without predicted chloroplast transit peptide (TargetP-2.0, WoLF PSORT); N-terminal 6xHis (pDEST17), tag kept; E. coli; cloned cDNA 984 nt

PpOTC [2] = test system: T1, PpOTC; assay: phosphomolybdate Pi release assay, […] nm; type: biochemical, Pinus pinaster; settings: 50 mM Tris-HCl pH 8.0, 25 °C, ornithine + carbamoyl-P above Km
[3] = target: recombinant Pinus pinaster argininosuccinate lyase (PpASL) (Pinus pinaster); assay: SEC; desalted purified recombinant enzymes loaded separately on an ENrich SEC 650 column calibrated with protein standards (29-669 kDa); holoenzyme mass from the partition coefficient (Kav); elution followed at 280 nm and confirmed by western blot
PpASL [4] = test system: T2, PpASL; assay: fumarate absorbance at […] nm; type: biochemical, Pinus pinaster; settings: 50 mM Tris-HCl pH 8, 25 °C, argininosuccinate above Km
T2 construct: gene ASL; mature form without predicted chloroplast transit peptide (TargetP-2.0, WoLF PSORT); N-terminal 6xHis (pDEST17), tag kept; E. coli; cloned cDNA 1398 nt

PpASL [5] = test system: T2, PpASL; assay: fumarate absorbance at […] nm; type: biochemical, Pinus pinaster; settings: 50 mM Tris-HCl pH 8, 25 °C
[6] = target: recombinant Pinus pinaster argininosuccinate synthetase (PpASSY) (Pinus pinaster); assay: SEC; desalted purified recombinant enzymes loaded separately on an ENrich SEC 650 column calibrated with protein standards (29-669 kDa); holoenzyme mass from the partition coefficient (Kav); elution followed at 280 nm and confirmed by western blot
[7] = target: recombinant Pinus pinaster ornithine transcarbamylase (PpOTC) (Pinus pinaster); assay: as above
PpASSY [8] = test system: T3, PpASSY; assay: PPi release, molybdate/ascorbate assay, […] nm; type: biochemical, Pinus pinaster; settings: 50 mM Tris-HCl pH 8, 25 °C, 3 mM ATP, 10 mM MgCl2
T3 construct: gene ASSY; mature form without predicted chloroplast transit peptide (TargetP-2.0, WoLF PSORT); N-terminal 6xHis (pDEST17), tag kept; E. coli; cloned cDNA 1218 nt

PpASSY [9] = test system: T3, PpASSY; assay: PPi release, molybdate/ascorbate assay, […] nm; type: biochemical, Pinus pinaster; settings: 50 mM Tris-HCl pH 8, 25 °C, citrulline, aspartate, 3 mM ATP, 10 mM MgCl2, substrates above Km; partial inhibition

Km (PpOTC [1]; ornithine co-substrate, negative cooperativity): 3480 ± 1400 µM
Molecule: NC(=O)OP(=O)(O)O [carbamoyl-P]

Km (PpOTC [1]; carbamoyl-P co-substrate (5 mM), positive cooperativity): 1280 ± 160 µM
Molecule: NCCC[C@H](N)C(=O)O [ornithine]

IC50 (PpOTC [2]): 7.19 mM
Molecule: CC(C)[C@H](N)C(=O)O [valine]

stoichiometry N [3]: 4
Molecule: recombinant Pinus pinaster argininosuccinate lyase (PpASL) (enzyme)

IC50 (PpASL [4]): 19.2 mM
Molecule: NCCCNCCCCNCCCN [spermine]

IC50 (PpASL [4]): 4.97 mM
Molecule: NCCCCNCCCN [spermidine]

Km (PpASL [5]): 220 ± 30 µM
Molecule: N=C(NCCC[C@H](N)C(=O)O)N[C@@H](CC(=O)O)C(=O)O [argininosuccinate]

stoichiometry N [6]: 4
Molecule: recombinant Pinus pinaster argininosuccinate synthetase (PpASSY) (enzyme)

stoichiometry N [7]: 3
Molecule: recombinant Pinus pinaster ornithine transcarbamylase (PpOTC) (enzyme)

Km (PpASSY [8]; 2 mM aspartate): 120 ± 30 µM
Molecule: NC(=O)NCCC[C@H](N)C(=O)O [citrulline]

Km (PpASSY [8]; 2 mM citrulline): 120 ± 50 µM
Molecule: N[C@@H](CC(=O)O)C(=O)O [aspartate]

Molecule: N=C(N)NCCC[C@H](N)C(=O)O [arginine]
IC50 (PpOTC [2]; negative allosteric): 10.3 mM
IC50 (PpASSY [9]): 1.94 mM
